The record followed here is patent US8207293B2, “Peptides derived from maurocalcine used as vectors for intracellular addressing of molecules of interest” (Commissariat a l'Energie Atomique, priority 2004, dated 2012).

Assay [1] concerns CA1 hippocampal neurons, HEK293 cells, L6 cells. As to the kind of experiment: Cell penetration of biotinylated peptide/Strept-Cy3 complexes in various cell cultures, confocal microscopy of fixed cells. The class given is cell-based. To be noted: 100 nM, 30 min, ambient temperature. The method, then: Soluble streptavidin-cyanin 3 and streptavidin-cyanin 5 (Strept-Cy^3 and Strept-Cy^5, AMERSHAM) were mixed with 4 molar equivalents of biotinylated maurocalcine (1 mM) or biotinylated maurocalcine-derived peptide, in phosphate buffer (PBS, in mM: 136 NaCl, 1.47 Na2HPO4, 2.6 KCl, 1 CaCl2, 0.5 MgCl2, pH 7.2), for 2 hours at 37° C. and in the dark.
The cells were incubated with maurocalcine and the derived peptides, biotinylated and complexed with streptavidin-cyanin 3 or with streptavidin-cyanin 5, at the final concentration of 100 nM in PBS, in the dark and at ambient temperature, for 30 minutes to 1 hour. […] The Alexa-488 and Cy3 or propidium iodide (PI) fluorescences were excited sequentially and then recorded. The Cy3 fluorescence was excited using a 543 nm helium-neon laser beam and the fluorescence emission was recorded between 554 nm and 625 nm. […]
The primary rat hippocampal neurons and the cells of the HEK293 line and the L6 line (before and after differentiation) are incubated for 30 min at ambient temperature, with 100 nM or 333 nM of maurocalcine-derived peptide, biotinylated and complexed with streptavidin-Cy3, or else 100 nM or 333 nM of MCab/Strept-Cy3, as a control. The cells are fixed and the fluorescence is observed by confocal microscopy.

For assay [2], the system named is HEK293 cells. As to the kind of experiment: Flow cytometry analysis of cellular penetration of complexes (trypsin/heparin treatment). The class given is cell-based, human. To be noted: 10 nM to 1 μM complexes. How it is done: The cells are incubated with maurocalcine and the derived peptides, biotinylated and complexed with […], at the final concentration of 100 nM in PBS, in the dark and at ambient temperature for 1 hour. After 2 washes in PBS (PBS, in mM: […], 6.84 Na2HPO4, 3.16 NaH2PO4, pH 7.2), and the cells were treated with trypsin (1 mg/ml, INVITROGEN), for 10 min at 37° C., in order to remove the extracellular complexes and the plasma-membrane-bound complexes. After the incubation with trypsin, the cell suspension was centrifuged at 500 g and the cells were resuspended in PBS containing 1 μg/ml of propidium iodide (SIGMA). […] The analysis was carried out on live cells, using a flow cytometer (FACScalibur, BECTON DICKINSON). The data were recorded and analyzed using appropriate software (CellQuest, BD BIOSCIENCES). The live cells were sorted according to their size and their granulosity (forward/side scattering), over a total of 10 000 events.
The analysis is carried out as described in Example 1. For the heparin treatment experiments, the complexes were prepared in a heparin solution (bovine intestine heparin, sodium salt, SIGMA) and the cells were washed twice with the heparin solution, before and after incubation with the complexes prepared in the same heparin solution.
The cellular penetration was analyzed by flow cytometry, on cells incubated with the MCab/Strept-Cy3 complexes, and then treated with trypsin, so as to remove the complexes bound to the plasma membrane by means of lipids, specific receptors or heparan sulfate glycosaminoglycan (HPSG). It has been shown that this method makes it possible to effectively study the entry of penetrating peptides into cells (Richard et al., J. Biol. Chem., 2003, 278, 585-590).
In general terms: In flow cytometry, cells or beads pass a laser one at a time.

In assay [3] the target is T1, RyR1 receptor (Oryctolagus cuniculus, UniProt P11716).
T1 construct: from tissue; host or cells: heavy sarcoplasmic reticulum vesicles (skeletal muscle implied)
In words: Ca2+ release by heavy sarcoplasmic reticulum vesicles (antipyrylazo III). The format is biochemical. To be noted: 100 nM complex. How it is done:
The heavy sarcoplasmic reticulum vesicles are prepared according to the method of Kim et al. (J. Biol. Chem., 1983, 258, 9662-9668) modified as described in Marty et al. (J. Biol. Chem., 2000, 275, 8206-8212). The protein concentration is measured by the Biuret method.
The Ca^2+ release by the heavy sarcoplasmic reticulum vesicles was measured using a Ca^2+-sensitive dye, antipyrylazo III. The absorbance was measured at 710 nm, using a diode-array spectrophotometer (MOS-200, Optical System, BIOLOGIC). The heavy sarcoplasmic reticulum vesicles (50 μg) were actively loaded with Ca^2+, at 37° C., in 2 ml of buffer containing 100 mM KCl, 7.5 mM sodium pyrophosphate, 20 mM MOPS, pH 7.0, to which 250 μM of antipyrylazo III, 1 mM ATP/MgCl2, 5 mM phosphocreatine and 12 μg/ml of creatine phosphokinase had been added (Palade, J. Biol. Chem., 1987, 262, 6142-6148).
The calcium loading begins with sequential additions of 50 μM and 20 μM CaCl2.
Under these loading conditions, no calcium-induced calcium release interferes with the observations. At the end of each experiment, the Ca^2+ remaining in the vesicles is measured by the addition of 4 μM of Ca^2+ ionophore, […] (Sigma), and the absorbance signal is calibrated by means of two consecutive additions of 20 μM CaCl2.

T1 sequence (P11716 whole entry): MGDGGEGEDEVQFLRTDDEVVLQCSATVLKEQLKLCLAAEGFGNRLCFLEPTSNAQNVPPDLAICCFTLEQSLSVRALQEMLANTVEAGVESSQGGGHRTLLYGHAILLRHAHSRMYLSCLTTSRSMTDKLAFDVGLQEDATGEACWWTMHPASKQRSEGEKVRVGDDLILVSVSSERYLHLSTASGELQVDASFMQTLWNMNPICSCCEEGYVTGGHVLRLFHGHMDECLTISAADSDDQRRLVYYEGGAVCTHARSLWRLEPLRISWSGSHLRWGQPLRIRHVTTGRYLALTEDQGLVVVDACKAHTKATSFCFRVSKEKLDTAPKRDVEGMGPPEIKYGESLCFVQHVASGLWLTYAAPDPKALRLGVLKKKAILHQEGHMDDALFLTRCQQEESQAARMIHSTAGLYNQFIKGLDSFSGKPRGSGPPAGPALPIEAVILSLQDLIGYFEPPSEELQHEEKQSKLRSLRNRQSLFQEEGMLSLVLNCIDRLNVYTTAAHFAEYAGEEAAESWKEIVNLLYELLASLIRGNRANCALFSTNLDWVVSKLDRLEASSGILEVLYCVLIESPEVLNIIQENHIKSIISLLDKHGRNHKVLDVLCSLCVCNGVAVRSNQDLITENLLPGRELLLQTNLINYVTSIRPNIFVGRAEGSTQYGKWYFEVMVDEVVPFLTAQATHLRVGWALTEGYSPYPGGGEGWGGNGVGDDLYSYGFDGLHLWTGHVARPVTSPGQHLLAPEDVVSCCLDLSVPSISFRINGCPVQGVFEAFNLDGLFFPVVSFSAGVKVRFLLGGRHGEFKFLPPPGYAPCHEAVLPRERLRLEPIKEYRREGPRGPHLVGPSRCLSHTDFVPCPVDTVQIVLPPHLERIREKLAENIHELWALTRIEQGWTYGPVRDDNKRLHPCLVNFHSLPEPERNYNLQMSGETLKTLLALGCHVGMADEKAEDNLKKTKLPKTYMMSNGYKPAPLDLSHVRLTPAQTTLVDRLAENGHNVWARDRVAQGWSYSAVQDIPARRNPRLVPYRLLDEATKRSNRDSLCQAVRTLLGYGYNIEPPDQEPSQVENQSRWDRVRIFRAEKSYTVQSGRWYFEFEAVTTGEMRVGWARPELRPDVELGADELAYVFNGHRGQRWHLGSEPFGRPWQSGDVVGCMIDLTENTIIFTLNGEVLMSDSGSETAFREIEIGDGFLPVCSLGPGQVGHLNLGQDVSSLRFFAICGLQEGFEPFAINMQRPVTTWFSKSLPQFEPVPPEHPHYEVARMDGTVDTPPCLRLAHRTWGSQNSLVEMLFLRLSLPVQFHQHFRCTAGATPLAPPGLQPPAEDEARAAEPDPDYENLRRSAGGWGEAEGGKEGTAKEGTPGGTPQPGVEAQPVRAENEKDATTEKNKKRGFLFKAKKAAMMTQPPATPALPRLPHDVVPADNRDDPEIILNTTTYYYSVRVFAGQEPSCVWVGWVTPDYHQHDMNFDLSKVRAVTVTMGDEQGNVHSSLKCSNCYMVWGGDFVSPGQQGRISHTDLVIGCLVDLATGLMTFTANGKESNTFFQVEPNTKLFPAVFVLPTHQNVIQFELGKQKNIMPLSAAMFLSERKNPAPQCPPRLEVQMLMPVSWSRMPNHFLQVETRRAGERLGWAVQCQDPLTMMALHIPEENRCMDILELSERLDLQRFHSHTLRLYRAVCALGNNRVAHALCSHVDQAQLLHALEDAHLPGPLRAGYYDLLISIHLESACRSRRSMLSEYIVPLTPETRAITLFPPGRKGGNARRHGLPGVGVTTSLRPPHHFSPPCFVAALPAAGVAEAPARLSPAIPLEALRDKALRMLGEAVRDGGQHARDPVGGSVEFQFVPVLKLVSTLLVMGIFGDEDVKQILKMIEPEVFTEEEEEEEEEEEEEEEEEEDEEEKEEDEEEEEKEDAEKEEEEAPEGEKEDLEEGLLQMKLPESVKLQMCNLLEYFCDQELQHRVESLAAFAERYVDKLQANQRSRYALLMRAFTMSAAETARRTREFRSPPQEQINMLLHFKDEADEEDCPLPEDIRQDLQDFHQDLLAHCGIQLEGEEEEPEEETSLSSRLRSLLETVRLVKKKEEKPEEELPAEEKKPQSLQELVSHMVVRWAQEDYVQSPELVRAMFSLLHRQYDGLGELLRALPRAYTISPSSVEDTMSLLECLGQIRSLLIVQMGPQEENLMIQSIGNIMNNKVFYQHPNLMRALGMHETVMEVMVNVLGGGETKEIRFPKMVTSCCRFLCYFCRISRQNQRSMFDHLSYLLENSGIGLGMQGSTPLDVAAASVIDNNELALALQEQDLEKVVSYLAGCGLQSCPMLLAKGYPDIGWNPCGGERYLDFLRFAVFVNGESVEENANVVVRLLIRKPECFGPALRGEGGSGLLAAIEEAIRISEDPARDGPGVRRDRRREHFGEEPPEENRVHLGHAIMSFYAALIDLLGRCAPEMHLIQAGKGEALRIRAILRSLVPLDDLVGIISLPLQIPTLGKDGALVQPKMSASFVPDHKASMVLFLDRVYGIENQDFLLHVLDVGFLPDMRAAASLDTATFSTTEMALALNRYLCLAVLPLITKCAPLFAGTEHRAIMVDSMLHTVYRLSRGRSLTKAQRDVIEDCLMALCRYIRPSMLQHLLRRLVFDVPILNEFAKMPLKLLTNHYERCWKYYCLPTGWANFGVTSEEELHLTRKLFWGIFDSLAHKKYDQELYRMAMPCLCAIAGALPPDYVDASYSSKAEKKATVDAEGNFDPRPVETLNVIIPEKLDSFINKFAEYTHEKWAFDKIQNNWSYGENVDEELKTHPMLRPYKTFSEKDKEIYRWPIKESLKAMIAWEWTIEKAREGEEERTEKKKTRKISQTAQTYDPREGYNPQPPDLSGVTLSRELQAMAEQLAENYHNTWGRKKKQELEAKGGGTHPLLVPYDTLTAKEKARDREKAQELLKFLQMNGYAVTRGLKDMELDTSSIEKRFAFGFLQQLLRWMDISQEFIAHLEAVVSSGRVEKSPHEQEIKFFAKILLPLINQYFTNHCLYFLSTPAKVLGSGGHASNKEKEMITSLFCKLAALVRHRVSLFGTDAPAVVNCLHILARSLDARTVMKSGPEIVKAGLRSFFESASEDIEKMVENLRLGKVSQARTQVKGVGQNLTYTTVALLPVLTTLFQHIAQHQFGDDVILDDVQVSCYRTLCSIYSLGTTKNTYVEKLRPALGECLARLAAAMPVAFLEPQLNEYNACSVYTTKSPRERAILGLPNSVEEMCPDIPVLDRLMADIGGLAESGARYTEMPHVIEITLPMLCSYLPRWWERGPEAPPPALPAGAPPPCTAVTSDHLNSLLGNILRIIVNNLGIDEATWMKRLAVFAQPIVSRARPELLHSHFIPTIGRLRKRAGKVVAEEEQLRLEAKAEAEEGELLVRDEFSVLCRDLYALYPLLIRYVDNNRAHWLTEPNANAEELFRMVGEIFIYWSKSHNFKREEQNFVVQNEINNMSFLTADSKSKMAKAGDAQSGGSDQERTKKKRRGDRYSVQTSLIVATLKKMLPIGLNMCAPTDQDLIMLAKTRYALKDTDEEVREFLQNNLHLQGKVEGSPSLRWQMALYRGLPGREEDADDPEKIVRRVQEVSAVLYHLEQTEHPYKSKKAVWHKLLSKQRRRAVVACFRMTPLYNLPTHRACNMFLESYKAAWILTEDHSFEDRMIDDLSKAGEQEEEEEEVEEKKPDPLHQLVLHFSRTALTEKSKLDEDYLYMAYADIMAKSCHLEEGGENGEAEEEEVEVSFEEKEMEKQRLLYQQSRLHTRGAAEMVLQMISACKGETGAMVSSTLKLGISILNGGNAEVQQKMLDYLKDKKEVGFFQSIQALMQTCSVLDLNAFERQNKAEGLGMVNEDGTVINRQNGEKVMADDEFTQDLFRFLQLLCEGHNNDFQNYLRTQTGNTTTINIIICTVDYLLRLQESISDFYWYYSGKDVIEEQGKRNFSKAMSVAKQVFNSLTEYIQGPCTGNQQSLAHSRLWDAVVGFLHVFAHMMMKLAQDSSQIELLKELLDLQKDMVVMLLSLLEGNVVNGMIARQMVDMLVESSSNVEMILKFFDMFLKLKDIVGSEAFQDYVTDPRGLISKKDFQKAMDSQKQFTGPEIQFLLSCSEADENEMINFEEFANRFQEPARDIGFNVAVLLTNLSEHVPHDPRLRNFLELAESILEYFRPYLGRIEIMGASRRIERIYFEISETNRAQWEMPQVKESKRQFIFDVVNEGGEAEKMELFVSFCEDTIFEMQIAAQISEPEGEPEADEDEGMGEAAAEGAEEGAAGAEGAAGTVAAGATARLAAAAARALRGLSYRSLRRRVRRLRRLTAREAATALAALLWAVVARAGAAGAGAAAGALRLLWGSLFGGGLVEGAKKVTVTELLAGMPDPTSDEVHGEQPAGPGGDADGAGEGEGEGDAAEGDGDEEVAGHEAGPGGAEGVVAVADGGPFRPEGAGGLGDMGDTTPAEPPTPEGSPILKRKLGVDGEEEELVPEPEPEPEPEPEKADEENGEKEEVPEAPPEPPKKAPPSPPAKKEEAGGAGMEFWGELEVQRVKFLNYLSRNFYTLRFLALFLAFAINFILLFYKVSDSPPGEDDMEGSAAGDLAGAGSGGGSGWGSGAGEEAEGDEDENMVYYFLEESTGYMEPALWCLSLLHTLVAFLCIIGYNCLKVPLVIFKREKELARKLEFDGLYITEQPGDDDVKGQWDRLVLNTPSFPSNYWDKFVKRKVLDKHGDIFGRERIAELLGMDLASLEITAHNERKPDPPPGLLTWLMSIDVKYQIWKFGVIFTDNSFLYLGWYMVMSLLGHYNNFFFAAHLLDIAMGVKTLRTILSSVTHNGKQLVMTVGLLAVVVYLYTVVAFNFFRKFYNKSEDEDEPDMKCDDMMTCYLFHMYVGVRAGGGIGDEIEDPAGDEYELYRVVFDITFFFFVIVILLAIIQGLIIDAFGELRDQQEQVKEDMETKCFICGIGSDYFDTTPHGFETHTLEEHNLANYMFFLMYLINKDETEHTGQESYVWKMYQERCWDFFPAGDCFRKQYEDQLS

Consider “MCab/Strept-Cy3: biotinylated maurocalcine, complexed with cyanin-3-labeled streptavidin”, for which the “Cy3 labeling of cells (transduction)” value in assay [1] is “strong uniform labeling of the plasma membrane and of the cytoplasm of all the cells”. In assay [2], the saturability of penetration result is recorded as “cannot be saturated”. In addition, in assay [3], the “efficiency of Ca2+ release in comparison with maurocalcine alone” value is reported as “slightly reduced efficiency” and the “induction of Ca2+ release from sarcoplasmic reticulum vesicles” value is reported as “induce Ca^2+ release”.
